# Measurements published in the supplement of paper PMC10307832.
# Experiments:
# Experiment in all cases: relative viability (nuclei count vs DMSO), 5 days (fraction); higher = more cells survive
# XMD8-85 + Crizotinib = compound: CN1CCN(CC1)C2=CC(=C(C=C2)NC3=NC=C4C(=N3)N(C5=CC=CC=C5C(=O)N4C)C)OC [XMD8-85] + C[C@@H](Oc1cc(-c2cnn(C3CCNCC3)c2)cnc1N)c1c(Cl)ccc(F)c1Cl [Crizotinib] (partner 1 µM)
# How it was run: (§1)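 Relative viability equals treated-well nuclei counts divided by vehicle-well nuclei counts. Counts came from 4× images of lung cancer cell lines grown in 1536-well plates for 5 days after pin-tool dosing on the day after seeding. Dosing used one drug alone or a fixed anchor-drug dose plus five library-drug doses (not always all listed) in √10 steps, and values are medians of duplicate plates.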
# XMD8-85 + Decitabine = compound: CN1CCN(CC1)C2=CC(=C(C=C2)NC3=NC=C4C(=N3)N(C5=CC=CC=C5C(=O)N4C)C)OC [XMD8-85] + Nc1ncn([C@H]2C[C@H](O)[C@@H](CO)O2)c(=O)n1 [Decitabine] (partner 2 µM)
# How it was run: as §1
# 4EGI-1 + Tozasertib = compound: O=C(O)C(Cc1ccccc1[N+](=O)[O-])=NNc1nc(-c2ccc(Cl)c(Cl)c2)cs1 (mixture of isomers) [4EGI-1] + Cc1cc(Nc2cc(N3CCN(C)CC3)nc(Sc3ccc(NC(=O)C4CC4)cc3)n2)n[nH]1 [Tozasertib] (partner 0.1 µM)
# How it was run: as §1
# 4EGI-1 + Vorinostat = compound: O=C(O)C(Cc1ccccc1[N+](=O)[O-])=NNc1nc(-c2ccc(Cl)c(Cl)c2)cs1 (mixture of isomers) [4EGI-1] + O=C(CCCCCCC(=O)Nc1ccccc1)NO [Vorinostat] (partner 1 µM)
# How it was run: as §1
Cell Line,relative viability (XMD8-85 + Crizotinib; first compound 0.253 µM),relative viability (XMD8-85 + Crizotinib; first compound 0.8 µM),relative viability (XMD8-85 + Crizotinib; first compound 2.53 µM),relative viability (XMD8-85 + Crizotinib; first compound 8 µM),relative viability (XMD8-85 + Decitabine; first compound 0.08 µM),relative viability (XMD8-85 + Decitabine; first compound 0.253 µM),relative viability (XMD8-85 + Decitabine; first compound 0.8 µM),relative viability (XMD8-85 + Decitabine; first compound 2.53 µM),relative viability (XMD8-85 + Decitabine; first compound 8 µM),relative viability (4EGI-1 + Tozasertib; first compound 0.5 µM),relative viability (4EGI-1 + Tozasertib; first compound 5 µM),relative viability (4EGI-1 + Tozasertib; first compound 15.81 µM),relative viability (4EGI-1 + Tozasertib; first compound 50 µM),relative viability (4EGI-1 + Vorinostat; first compound 0.5 µM),relative viability (4EGI-1 + Vorinostat; first compound 1.581 µM),relative viability (4EGI-1 + Vorinostat; first compound 5 µM),relative viability (4EGI-1 + Vorinostat; first compound 15.81 µM),relative viability (4EGI-1 + Vorinostat; first compound 50 µM),relative viability (XMD8-85 + Crizotinib; first compound 0.08 µM),relative viability (4EGI-1 + Tozasertib; first compound 1.581 µM)
EPLC-272H,0.678,1.03,0.947,0.691,0.347,0.36,0.314,0.294,0.305,0.288,0.297,0.172,0.193,0.563,0.493,0.337,0.295,0.12,–,–
Calu-6,0.607,0.894,–,0.396,–,–,–,–,–,–,–,–,–,–,–,–,–,–,0.689,–
NCI-H1915,0.909,0.943,0.998,0.882,0.279,0.262,0.838,0.563,0.253,0.448,0.421,0.326,0.201,0.536,0.36,0.599,0.542,0.387,1.06,0.327
LXF-289,0.798,0.809,0.804,0.658,0.409,0.371,0.369,0.423,0.352,0.203,0.204,0.151,0.168,0.79,0.718,0.787,0.802,0.672,0.787,0.22
EBC-1,0.189,0.184,0.186,0.114,–,–,–,–,–,–,–,–,–,–,–,–,–,–,0.197,–
A549,0.711,0.872,0.855,0.426,0.296,0.252,0.237,0.369,0.384,–,–,–,–,–,–,–,–,–,0.704,–
IA-LM,0.889,0.91,–,0.127,–,–,–,–,–,–,–,–,–,1.04,0.91,0.871,0.698,0.261,0.678,–
NCI-H522,–,–,–,–,0.739,0.669,0.615,0.782,0.635,0.558,0.595,0.558,0.457,0.812,0.903,0.954,1.03,0.634,–,0.491
NCI-H2342,–,–,–,–,0.7,0.709,0.677,0.777,0.867,0.549,0.655,0.544,0.511,0.765,0.664,0.833,0.835,0.712,–,0.598
NCI-H1395,–,–,–,–,0.609,0.762,0.722,0.701,0.716,0.868,0.764,0.711,0.477,0.833,–,0.858,0.669,0.397,–,0.637
CAL-12T,0.664,0.779,0.474,0.15,–,–,–,–,–,0.354,0.315,0.315,0.21,0.964,–,0.95,0.759,0.67,0.357,0.264
NCI-H2228,0.442,0.521,0.528,0.26,–,–,–,–,–,0.276,0.248,0.285,0.134,0.749,0.609,0.588,0.539,0.123,0.454,0.273
